Measured values published in US20230303556A1, “PIPERAZINE SUBSTITUTED INDAZOLE COMPOUNDS AS INHIBITORS OF PARG” (IDEAYA BIOSCIENCES, INC., priority 2022, published 2023).
Values after ≈ are worked out from the molar mass of the structure shown. Where two headings read alike, the source gives them in different places.

What was measured:
[1] = test system: SNU601-NucLight Red cells; assay: Cellular viability assay, SNU601-NucLight Red; format: cell-based; settings: SNU-601, 168 h, 7 days incubation, geometric mean
Protocol: (§1) The ability of the compounds disclosed herein to inhibit PARG was determined in the following two cell lines: RMUGS-NucLight Red and SNU601-NucLight Red. RMUGS-NucLight Red and SNU601-NucLight Red cells were generated by stably transducing parental cells (RMUGS-JCRB Cell Bank, Cat no: IF050320; SNU601-Korean Cell Line Bank, Cat no:00601) with Incucyte® NucLight Red lentivirus (Sartorius, Cat no: 4476). Described below are the protocols followed for both the cell lines.
(§2) The cells were plated at 200 cells/well in a 384-well black plate with clear flat bottom. After 24 hours, the plates were imaged using the Incucyte® S3 Live-Cell Analysis system and the number of live cells in each well (Day 0) was counted. Test compounds were then added by Tecan digital dispenser to generate a 9 point dose curve with a 3 fold dilution and 10 uM top concentration. All treatments were done in triplicates. After 7 days of incubation, the plates were imaged using the Incucyte® S3 system and the number of live cells per well (Day 7) was counted. For every well on the plate, the live cell counts on day 7 was normalized to the cell counts from day 0 (Day 7/Day 0). Average values of DMSO treated wells in a plate were calculated. All the data points were normalized to that of the average DMSO value. The % of control for each sample was compared to DMSO treated control samples. EC50 values were calculated in Collaborative Drug Discovery vault (CDD). Curves were fitted by CDD as % of control vs. log [compound concentration] using a 4-parameter inhibition model (Levenberg-Marquardt algorithm):
(§3) Fit=(A+((B−A)/(1+((C/x)^D))))
When clear bi-phasic behavior was observed on the resulting data the EC50 was calculated in GraphPad Prism Software for the major fraction of the response using the following formula:
Section1=Span*Frac/(1+10^((Log EC50_1−X)*nH1))
Section2=Span*(1−Frac)/(1+10^((Log EC50_2−X)*nH2))

[2] = Kinetic solubility in PBS pH 2.0 and pH 7.4; format: physicochemical; settings: aqueous buffer, kinetic from dmso stock, * n <3 runs
Protocol: • Control compound diclofenac sodium (LOT #BCBW9128) was purchased from Sigma Chemical Co. • 1.5 mL glass flat bottom vials (BioTech Solutions) • Molded PTFE/SIL plugs (BioTech Solutions) • PTFE encapsulated stir stick (V&P Scientific) • MultiScreenHTS HV (0.45 μm) 96 well plate (Millipore, MSHVN4510 or MSHVN4550) • Eppendorf Thermomixer Comfort • Vacuum Manifold ORVMN96. • PBS pH 2.0 and pH 7.4 was prepared in our laboratory
• diclofenac sodium (LOT #BCBW9128), Sigma Chemical Co.
• 1. Preparation of stock solutions. The stock solutions of test compounds and control compound diclofenac sodium were prepared in DMSO at the concentration of 30 mM and 10 mM, respectively. • 2. Procedure for solubility determination. 10 μL of stock solutions (30 mM) of test compounds was placed in order into their proper 96-well rack, 20 μL of DMSO and 970 μL of PBS pH 2.0 or pH 7.4 was added into each vial of the cap-less Solubility Sample plate; 30 μL of stock solution (10 mM) of control compound was placed in order into its proper 96-well rack, 970 μL of PBS pH 2.0 or pH 7.4 was added into each vial of the cap-less Solubility Sample plate. The assay was performed in duplicate. One stir stick was added to each vial and seal using a molded PTFE/Silicone plug. Then the Solubility Sample plate was transferred to the Eppendorf Thermomixer Comfort plate shaker and shaken at 25° C. at 1100 RPM for 24 hours. After completion of the 24 hours, plugs were removed and the stir sticks were removed using a big magnet, the samples from the Solubility Sample plate were transferred into the filter plate. Using the Vacuum Manifold, all the samples were filtered. Aliquot of 10 μL was taken from the filtrate followed by addition of 990 μL of a mixture of H2O and acetonitrile (1:1 in v/v). 200 μL of diluent was transferred to a new 96-well plate for LC-MS/MS analysis. The dilution factor was changed according to the solubility values and the LC-MS signal response. • 3. Preparation of 3 μM standards (STD). From the 10 mM or 30 mM DMSO STD plate, 15 μL or 5 μL was transferred into the remaining empty plate, and then 485 μL or 495 μL of DMSO was added to that plate to have a STD concentration of 300 μM. From the 300 μM DMSO STD plate, 5 μL was transferred into the remaining empty plate, and then 495 μL of a mixture of H2O and acetonitrile (1:1 in v/v) was added to that plate to have a final STD concentration of 3 μM. 200 μL of diluent was transferred to a new 96-well plate for LC-MS/MS analysis. The concentrations of the standard samples were changed according to the LC-MS signal response. • 4. Procedure for sample analysis. The plate was placed into the well plate autosampler. The samples were evaluated by LC-MS/MS analysis.

hPARG = hPARG (Homo sapiens (Human), UniProt Q86W56); assay: Inhibition of PARG enzymatic assay (TR-FRET); format: biochemical; settings: geometric mean; 1 hr compound/enzyme pre-incubation
hPARG, sequence (Q86W56 whole entry): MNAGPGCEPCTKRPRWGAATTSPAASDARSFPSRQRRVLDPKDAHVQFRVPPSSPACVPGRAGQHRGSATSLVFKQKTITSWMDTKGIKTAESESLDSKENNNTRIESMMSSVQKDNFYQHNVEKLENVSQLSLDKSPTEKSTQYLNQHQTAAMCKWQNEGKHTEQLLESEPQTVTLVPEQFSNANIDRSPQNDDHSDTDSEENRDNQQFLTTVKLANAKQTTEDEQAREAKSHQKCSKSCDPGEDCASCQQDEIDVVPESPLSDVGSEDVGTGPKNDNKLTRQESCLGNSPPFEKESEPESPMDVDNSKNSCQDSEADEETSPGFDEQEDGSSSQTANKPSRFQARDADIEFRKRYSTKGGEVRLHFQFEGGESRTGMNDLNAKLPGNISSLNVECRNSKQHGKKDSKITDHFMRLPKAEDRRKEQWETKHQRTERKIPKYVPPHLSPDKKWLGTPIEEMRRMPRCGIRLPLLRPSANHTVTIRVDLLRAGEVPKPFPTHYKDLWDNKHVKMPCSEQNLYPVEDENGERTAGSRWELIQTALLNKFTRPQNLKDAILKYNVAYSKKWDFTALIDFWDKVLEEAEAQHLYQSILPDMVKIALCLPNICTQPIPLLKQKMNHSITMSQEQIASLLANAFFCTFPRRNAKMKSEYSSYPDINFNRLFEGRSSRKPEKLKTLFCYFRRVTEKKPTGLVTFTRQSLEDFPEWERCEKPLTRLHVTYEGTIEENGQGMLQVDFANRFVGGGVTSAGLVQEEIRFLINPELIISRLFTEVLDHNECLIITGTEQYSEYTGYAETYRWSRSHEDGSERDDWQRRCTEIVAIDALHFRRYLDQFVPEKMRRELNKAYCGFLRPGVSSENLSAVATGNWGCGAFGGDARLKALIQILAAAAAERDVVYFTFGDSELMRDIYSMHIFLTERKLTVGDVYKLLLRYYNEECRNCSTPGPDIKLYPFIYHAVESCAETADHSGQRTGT
Protocol: PARG enzyme was incubated with compound or vehicle (DMSO) and the biotinylated-PARylated PARP-1 substrate in a microtiter plate. After adding detection antibody and streptavidin-europium, and then incubating, the plate was read for fluorescence intensity. The low control (DMSO) with low fluorescence intensity represents no inhibition of enzymatic activity, while the high control (no enzyme) with high fluorescence intensity represents full inhibition of enzymatic activity.
• 0% inhibition: DMSO • 100% inhibition: No enzyme Enzyme reaction and Detection: • 1. Transfer 200 nL of 100× compound or DMSO to the appropriate wells of a 384 well white polystyrene microtitre plate (Corning Catalog #3574). • 2. Transfer 10 uL of 2× final concentration of enzyme in assay buffer or assay buffer alone to the appropriate wells. • 3. Centrifuge the plate at 1000 rpm for 30 seconds. • 4. Incubate the plate at room temperature for 1 hour. • 5. Transfer 10 uL of 2× substrate in assay buffer to all test wells. • 6. Incubate the plate at room temperature for 10 minutes • 7. Transfer 10 uL of 3× mixture of 42 nM detection antibody and 2.25 nM streptavidin-europium in 50 mM Tris-HCL pH 7.4 to all test wells. • 8. Incubate the plate at room temperature for 1 hour. • 9. Read the plate on a plate reader (Envision) • Excitation: 317 nm • Emission: 620 nm • Emission: 665 nm
EC50 values were calculated in Collaborative Drug Discovery vault (CDD). Curves were fitted by CDD as response (%) vs compound concentration (uM) using a 4-parameter inhibition model using Formula 1.
as §3

RMUGS-NucLight Red cells = assay: Cellular viability assay, RMUGS-NucLight Red; format: cell-based; settings: 168 h, 7 days incubation, geometric mean
Protocol: as §1
as §2, with “1000” for “200”, “96-well” for “384-well”, “duplicates.” for “triplicates.”, “[…]” for “EC50”
as §3

[3] = PBS pH 2.0, 25° C., read-out: Kinetic Solubility pH 2.0
[4] = PBS pH 7.4, 25° C., read-out: Kinetic Solubility pH 7.4

SMILES	EC50 [1]	solubility kinetic at 24 h [2, 3]	solubility kinetic at 24 h [2, 4]	EC50 (hPARG)	EC50 (RMUGS-NucLight Red cells)
C[C@@H]1CN(c2cc(S(=O)(=O)NC3(C)CC3)cc3c2cnn3-c2nnc(C(F)F)s2)C[C@H](C)N1	27 nM	271 µM (≈ 135 µg/mL)	31 µM (≈ 15.4 µg/mL)	15 nM	11 nM
C[C@@H]1CN(c2cc(S(=O)(=O)NC3(C)CC3)cc3c2cnn3-c2nnc(C(F)F)s2)C[C@@H](C)N1	89 nM	261 µM (≈ 130 µg/mL)	41 µM (≈ 20.4 µg/mL)	51 nM	32 nM
Cc1nnc(-n2ccc3ccc(S(=O)(=O)NC4(C)CC4)cc32)s1	> 10000 nM	29 µM (≈ 10.1 µg/mL)	24 µM (≈ 8.36 µg/mL)	> 10000 nM	> 10000 nM
CC(C)C(=O)N1CCN(c2cc(S(=O)(=O)NC3(C#N)CC3)cc3c2cnn3-c2nnc(C(F)F)s2)CC1	104 nM	1.1 µM (≈ 0.606 µg/mL)	2.1 µM (≈ 1.16 µg/mL)	19 nM	64 nM
CC(C)C(=O)N1CCN(c2cc(S(=O)(=O)NC3(C#N)CC3)cc3c2cnn3-c2nnc(C(F)F)s2)C[C@H]1C	146 nM	2.1 µM (≈ 1.19 µg/mL)	5.6 µM (≈ 3.16 µg/mL)	39 nM	75 nM
CC(C)C(=O)N1CCN(c2cc(S(=O)(=O)NC3(C#N)CC3)cc3c2cnn3-c2nnc(C(F)F)s2)C[C@@H]1C	184 nM	3.4 µM (≈ 1.92 µg/mL)	8 µM (≈ 4.52 µg/mL)	76 nM	137 nM
CC(C)C(=O)N1[C@H](C)CN(c2cc(S(=O)(=O)NC3(C#N)CC3)cc3c2cnn3-c2nnc(C(F)F)s2)C[C@@H]1C	178 nM	< 0.03 µM	< 0.03 µM	79 nM	101 nM
CN1CCN(c2cc(S(=O)(=O)NC3(C#N)CC3)cc3c2cnn3-c2nnc(C(F)F)s2)CC1	1580 nM	289 µM (≈ 143 µg/mL)	2.7 µM (≈ 1.34 µg/mL)	201 nM	439 nM
CN(C)C(=O)N1CCN(c2cc(S(=O)(=O)NC3(C)CC3)cc3c2cnn3-c2nnc(C(F)F)s2)CC1	36 nM	0.2 µM (≈ 0.108 µg/mL)	0.3 µM (≈ 0.162 µg/mL)	7.3 nM	8.3 nM
CN(C)C(=O)N1CCN(c2cc(S(=O)(=O)NC3(C#N)CC3)cc3c2cnn3-c2nnc(C(F)F)s2)CC1	81 nM	1 µM (≈ 0.552 µg/mL)	1.4 µM (≈ 0.772 µg/mL)	6.6 nM	49 nM
C[C@@H]1CN(c2cc(S(=O)(=O)NC3(C#N)CC3)cc3c2cnn3-c2nnc(C(F)F)s2)CCN1C(=O)N(C)C	84 nM	7.2 µM (≈ 4.07 µg/mL)	14 µM (≈ 7.92 µg/mL)	9.9 nM	60 nM
C[C@H]1CN(c2cc(S(=O)(=O)NC3(C#N)CC3)cc3c2cnn3-c2nnc(C(F)F)s2)CCN1C(=O)N(C)C	110 nM	7.8 µM (≈ 4.41 µg/mL)	14 µM (≈ 7.92 µg/mL)	14 nM	77 nM
C[C@H]1CN(c2cc(S(=O)(=O)NC3(C)CC3)cc3c2cnn3-c2nnc(C(F)F)s2)C[C@H](C)N1 [drawing 29]	11 nM	282 µM (≈ 140 µg/mL)	42 µM (≈ 20.9 µg/mL)	1.9 nM	4.2 nM
